{
  "source": "patent US20220160651A1",
  "about": "“RAPIDLY IMPROVING ENDOTHELIAL FUNCTION, REDUCING ARTERIAL STIFFNESS AND REVERSING CALCIFICATION OF BLOOD VESSELS BY ADMINISTERING VITAMIN K” (KAYDENCE PHARMA AS, priority 2019, published 2022)",
  "key": {"[1]": {"tested_on": "matrix gla protein (MGP)", "assay": "Clinical study: blood analysis of matrix gla protein carboxylation", "format": "in vivo, human", "conditions": "360 ug/day, after 8 weeks of treatment, kidney transplant patients", "protocol": "Participants were enrolled in a clinical trial in which the effects of vitamin K2 were determined for patients who had recently undergone a kidney transplant. At the beginning of the study, patients were subjected to a non-invasive pulse wave velocity measurement to measure arterial stiffness/flexibility, as well as blood analysis. The study participants were then instructed to receive a specific daily dose of MenaQ7 vitamin K2 menaquinone-7 (360 ug/day) for a total of 8 weeks. At the end of 8 weeks, patients were again examined with a follow-up examination, a non-invasive pulse wave velocity measurement and blood analysis and drug treatment was discontinued.\nAs part of the blood analysis, carboxylated matrix gla protein (MGP) was measured as a direct measure of vitamin K2 activity. The carboxylated MGP inhibits calcification of blood vessels and Vitamin K2 stimulates carboxylation of MGP."}, "[2]": {"tested_on": "endothelial nitric oxide synthase (eNOS)-dependent nitric oxide (NO) production", "assay": "Endothelial NO production in ex vivo aorta by EPR spin-trapping", "conditions": "0.05 mg/kg b.w./day, vs untreated age-matched mice", "source_text": "For measurements of endothelial nitric oxide synthase (eNOS)-dependent nitric oxide (NO) production, EPR spin-trapping with diethyldithiocarbamic acid sodium salt (DETC) was used ex vivo, as described in Przyborowski K, Proniewski B, Czarny J, Smeda M, Sitek B, Zakrzewska A, et al. Vascular Nitric Oxide-Superoxide Balance and Thrombus Formation after Acute Exercise. Med Sci Sport Exerc 2018:1. doi:10.1249/MSS.0000000000001589, with minor modifications. Isolated aorta cleared from surrounding tissue was opened longitudinally and preincubated with 10 μM L-NIL (N6-(1-Iminoethyl)-lysine, hydrochloride) in Krebs-HEPES buffer for 30 minutes at 37° C. in a well of a 48-well plate. Next, 250 μL of Fe(DETC)2 colloid was added and aorta was stimulated with calcium ionophore A23187 (the final concentration was 1 μM) and subsequently, incubated for 90 minutes at 37° C. Finally, aorta was weighed and frozen in liquid nitrogen (suspended in fresh buffer) into the middle of a 400 μL column of Krebs-Hepes buffer and stored at −80° C. until measured. EPR spectra were obtained using an X-band EPR spectrometer (EMX Plus, Bruker, Germany), equipped with a rectangular resonator cavity H102. Signals were quantified by measuring the total amplitude of the NO-Fe(DETC)2 after correction of baseline. The quantitative results of NO production assessed by EPR were expressed in AU/mg of tissue."}, "[3]": {"tested_on": "ApoE/LDLR−/− mice", "assay": "Histological assessment of area and composition of atherosclerotic plaque in BCA, older mice (Example 3)", "format": "in vivo", "conditions": "eight weeks", "source_text": "For the determination of atherosclerotic plaque area and composition isolated brachiocephalic artery (BCA) was dissected, fixed in 4% buffered formalin, and embedded in paraffin. 5 μm-thick serial sections of BCA were collected from the proximal to distal part of the artery. Staining with Unna's orcein combined with Martius, Scarlet and Blue trichrome (OMSB) was applied on every tenth section (50 μm interval between each section) for quantitative analysis of atherosclerotic plaques. The areas of particular components of atherosclerotic plaque as well as artery lumen and wall were determined after Columbus-based software processing (FIG. 9) using specially-designed algorithm as described in Gajda M, Jasztal A, Banasik T, Jasek-Gajda E, Chlopicki S. Combined orcein and martius scarlet blue (OMSB) staining for qualitative and quantitative analyses of atherosclerotic plaques in brachiocephalic arteries in apoE/LDLR−/− mice. Histochem Cell Biot 2017. doi:10.1007/s00418-017-1538-8. The parameters analyzed include vessel wall area (VWA), internal vessel area (IVA=plaque area+lumen area), plaque area (expressed as percent of internal wall area: plaque/IWA), and lumen area (expressed as percent of internal wall area: lumen/IWA)."}},
  "data": [
    {"smiles": "CC(C)=CCC/C(C)=C/CC/C(C)=C/CC/C(C)=C/CC/C(C)=C/CC/C(C)=C/CC/C(C)=C/CC1=C(C)C(=O)c2ccccc2C1=O", "note": "[MK-7, menaquinone-7]", "values": [
      {"measurement": "mean reduction of levels of uncarboxylated MGP", "setting": "[1]", "result": 55, "unit": "%"},
      {"measurement": "nitric oxide production in ex vivo aorta by EPR", "setting": "[2]", "result": "increased nitric oxide production"},
      {"measurement": "plaque size compared with non-treated mice", "setting": "[3]; low (0.03 mg/kg b.w./day) or high dose (10 mg/kg b.w./day)", "result": "not different"},
      {"measurement": "decrease in vessel wall area (VWA) of BCA", "setting": "[3]; low and high dose, 24-week-old mice", "result": "about 5%"},
      {"measurement": "plaque and lumen area expressed as percent of IWA", "setting": "[3]; low or high dose", "result": "did not change"},
      {"measurement": "internal wall area (IWA)", "setting": "[3]; lower dose", "result": "decreased only in the middle part of the vessel"}
    ]}
  ]
}
